One block for each compound: values may come before it.
Experiments:
[1] = system: FcγRIIA; experiment: Immobilized immune complex (IC)-induced ROS generation in FcγRIIA+/γ-/- mouse bone marrow neutrophils (high-throughput screen); format: cell-based; details: for ROS RLU ratio: compound at 1.1 μM, mouse BMN ROS induced by immobilized IC
Procedure: Screen of 8,483 compounds was done in collaboration with the Institute of Chemistry and Cell Biology Screening facility at Harvard Medical School (ICCB/Longwood). Each compound was dissolved in DMSO at a concentration of […]. For the primary screen, wells were coated with immune complexes as follows: 0.1 mg/mL poly-L-lysine (Sigma) followed by 2.5% glutaraldehyde were dispensed onto 384-well format black plate (Corning), and the plate was washed once with DDW and twice with PBS, incubated with 100 μL 1 mg/ml bovine serum albumin (BSA) followed by 100 μL 40 μg/mL rabbit anti-BSA antibody to generate in situ immune complexes (IC). Mature murine neutrophils isolated from the bone marrow of FcγRIIA+/γ^-/- mice as previously described, were suspended in 100 uM homovanillic acid/5 U/ml peroxidase IV (Sigma)/1 mM EDTA/HBSS (Thermo) assay solution (pH 7.5) and 3×10^4 cells in 30 μL were loaded per well into a 384-well format plate using a Wellmate automated dispenser (Thermo Scientific). Immediately after dispensing cells, ICCB library compounds dissolved in 33 nL DMSO were dispensed into wells using a Compound Transfer Robot (Epson). The plates were placed in a humidified incubator at 37 C for 60 mins and then fluorescence levels were read out at Ex/Em 321/421 nm with Envision2 (PerkinElmer). PP2 (Sigma), a Src inhibitor known to down-regulate FcγRIIA signal, and DMSO were used as positive and negative control, respectively. All the experiments were performed in duplicate.
An automated high-throughput drug screen in primary neutrophils from mice expressing FcγRIIA on neutrophils and lacking all their endogenous activating murine FcγRs (FcγRIIA^+/γ^-/-) was established to identify compounds that inhibit the activity of FcγRIIA. Immune complex (IC)-induced reactive oxygen species (ROS) generation served as our read-out of FcγRIIA activity. An appropriate positive (PP2, an inhibitor of the FcγR proximal Src-family kinase) and negative (DMSO, vehicle) control was included in the assay. The screen of 8,483 compounds, used at 10 μM in DMSO, yielded 84 hits (1% hit rate) that were defined as those that have an inhibitory potential that is ≧95% of PP2 (FIG. 1A). Of the 30 compounds cherry picked for a secondary screen, ten compounds were identified as having an ability to inhibit neutrophil FcyRIIA induced ROS generation at even lower concentrations (i.e., 1.1 μM or less) (Table 1).

[2] = system: neutrophils; experiment: Cell viability by Annexin V and propium iodide; format: cell-based; details: range of concentrations
[3] = system: FcγRIIA+/γ-/-/Mac-1-/- mice; experiment: Human lupus serum induced kidney injury model; format: in vivo, mouse
Procedure: Human serum samples were obtained from the Lupus Clinic at the Beth Israel Deaconess Medical Center from patients with SLE diagnosed according to the classification criteria of the American College of Rheumatology as previously described^13. Informed consent was obtained from all patients and healthy donors under a Beth Israel Deaconess Medical Center Institutional Review Board-approved protocol. FcγRIIA+/γ^-/-/Mac1-mice were injected s.c. in both flanks with 2.5 μg human IgG (Jackson ImmunoResearch Laboratories) in CFA (Thermo Scientific and Difco) on day-3. On days 0 and 2, 200 μl sterile serum was injected i.v. The mice were given an oral administration of Bosutinib (150 mg/kg) or a vehicle solution every 24 hrs from day 0 to 14. Spot urine samples and peripheral blood were collected at indicated time points after human serum injection. Both kidneys from euthanized mice were harvested for histological analysis at day 10 or 14. […]

[4] = mice, gavage; cited from earlier work
[5] = system: FcγRIIA; experiment: FcγRIIA cross-linking induced ROS generation in FcγRIIA+/γ-/- mouse BMNs (luminol); format: cell-based; details: 100 nM, FIG. 4A
Procedure: 10^6 BMNs were suspended in PBS without Ca^2+/Mg^2+, and then incubated with 10 μg/ml mouse anti-hFcγRIIa (clone IV.3; StemCell Technologies) on ice for 30 minutes. After washing in PBS, cells were incubated with or without 500 ng/ml mGM-CSF (BioLegend) for 30 minutes. After pretreated with Bosutinib at indicated concentrations or DMSO at 37 C for 30 minutes, luminol (50 μM) in PBS with Ca^2+/Mg^2+ was added, followed immediately by the addition of goat anti-mouse F(ab′)2 (36 μg/ml; Jackson ImmunoResearch). ROS generation (expressed in relative light units) was continuously monitored over time using a 6-channel bioluminat LB-953 luminometer (Berthold). For human PMNs, 5×10^5 cells were analyzed without GM-CSF pretreatment.

Structure (SMILES): Cc1n[nH]c2ccc(-c3cncc(OC[C@@H](N)Cc4c[nH]c5ccccc45)c3)cc12 [A-443654]
ROS RLU ratio [1]: 0.266

IC50 ([1]; mouse BMNs, FIG. 1C): ~50 nM
Structure (SMILES): COc1cc(Nc2c(C#N)cnc3cc(OCCCN4CCN(C)CC4)c(OC)cc23)c(Cl)cc1Cl [Bosutinib]
ROS RLU ratio [1]: 0.033 | Cell viability [2]: did not affect cell viability | Total leukocyte and neutrophil counts versus vehicle ([3]; hemocytometric analysis, day 14): comparable | Hb ([3]; peripheral blood, day 14, AVE): 7.98 g/dL | Neu % ([3]; peripheral blood, day 14, AVE): 25.64% | Neu total ([3]; peripheral blood, day 14, AVE): 0.7506 K/ul | Plt total ([3]; peripheral blood, day 14, AVE): 949.8 K/ul | RBC ([3]; peripheral blood, day 14, AVE): 7.98 M/ul | WBC total ([3]; peripheral blood, day 14, AVE): 2.656 K/ul | Time of peak blood concentration [4]: 2 to 4 h

Structure (SMILES): CN(C)CCCn1cc(C2=C(c3c[nH]c4ccccc34)C(=O)NC2=O)c2ccccc21 [GF109203X]
ROS RLU ratio [1]: 0.338

Structure (SMILES): Cc1cn(-c2cc(NC(=O)c3ccc(C)c(Nc4nccc(-c5cccnc5)n4)c3)cc(C(F)(F)F)c2)cn1 [Nilotinib]
Neutrophil ROS generation induced by FcγRIIA cross linking [5]: reduced | Potency compared to Bosutinib in FcγRIIA cross linking ROS [5]: lower

Structure (SMILES): CN(c1ccccc1CNc1nc(Nc2ccc3c(c2)CC(=O)N3)ncc1C(F)(F)F)S(C)(=O)=O [PF431396]
ROS RLU ratio [1]: 0.301

Structure (SMILES): Cn1cc(C2=C(c3cn(CCCSC(=N)N)c4ccccc34)C(=O)NC2=O)c2ccccc21 [Ro 31-8220]
ROS RLU ratio [1]: 0.778

From patent US20170266182A1, “Treatment of IgG-Immune Complex-Mediated Organ Damage” (The Brigham and Women's Hospital, Inc., priority 2014, published 2017)
